Read-outs that look alike come from different tables or passages of the source.
Key:
[1] = tested on: heregulin-mediated tyrosine phosphorylation in MDA-MB-453 cells; assay: Heregulin-dependent tyrosine phosphorylation assay, MDA-MB-453 cells, western blot; assay type: cell-based; conditions: Homo sapiens, 2 hours compound, 10 ng/mL heregulin 5 minutes, read-out: Heregulin-Medidated Tyrosine Phosphorylation IC50
Method: Proteins in the lysate were separated by polyacrylamide gel electrophoresis and electrophoretically transferred to nitrocellulose. […] Band intensities were determined with a laser densitometer.

[2] = tested on: human epidermoid carcinoma, A431; assay: In vivo tumor inhibition assay, A431 tumor fragments s.c. in nude mice; conditions: for Tumor Growth Delay / Tumor Growth Inhibition: 15 consecutive days; for Tumor Growth Delay: isethionate salt in water, T-C to 750 mg; for Tumor Growth Inhibition: growth delay divided by number of treatments times 100%
Method: The human epidermoid carcinoma, A431, was propagated in vivo by serial transplantation. This tumor model was selected for these studies because of its known dependence upon the EGF receptor for growth and its early stage responsiveness to monoclonal antibody therapy in vivo. In this experiment nude mice weighing 18-22 grams were implanted subcutaneously with 30 mg A431 tumor fragments in the region of the right axilla on Day 0. Tumors were allowed to grow to a mass of 100 to 150 mg, at which time the tumor bearing animals were randomized and distributed into treatment cages. […] The isethionate salts can be prepared by titrating the compounds into solution with 2 equivalents of isethionic acid. Treatment was based on average group weight. The control animals received water. Evaluation of the experiment was based on tumor growth delay, T-C, defined as the difference, in days, for the treated and control tumors to reach an evaluation size of 750 mg. Data can also be represented as the percentage of tumor growth inhibition, defined as the tumor growth delay divided by the number of treatments times 100%. […] Statistical analysis was performed using JMP for Macintosh (SAS Institute, Inc., Cary, N.C. ).

[3] = tested on: VEGF secretion from A431 cells; conditions: for VEGF secretion: 48 hours

- IC50 [1]: 9 nM
SMILES: C=CC(=O)Nc1cc2c(Nc3ccc(F)c(Cl)c3)ncnc2cc1OCCCN1CCOCC1 [compound 1, N-[4-(3-chloro-4-fluoro-phenylamino)-7-(3-morpholin-4-yl-propoxy)-quinazolin-6-yl]-acrylamide]
- Tumor Growth Delay ([2]; 5 mg/kg perorally): 53.2 days
- Tumor Growth Inhibition ([2]; 5 mg/kg perorally): 355%
- Tumor Growth Delay ([2]; 18 mg/kg perorally): 41.3 days
- Tumor Growth Inhibition ([2]; 18 mg/kg perorally): 275%
- antitumor response T-C ([2]; A431 tumors in vivo, dose not given): 53 days
- VEGF secretion ([3]; 10 ng/mL EGF stimulated, 0.1 μM compound): 1490 ± 170 pg/10^5 cells ± SE
- VEGF secretion ([3]; 10 ng/mL EGF stimulated, 0.5 μM compound): 560 ± 29 pg/10^5 cells ± SE
- effect on EGF- or TGF-alpha stimulated VEGF secretion ([3]; 0.5 μM, in words): blocked
- VEGF secretion ([3]; TGF-alpha stimulated, 0.1 μM compound): 1976 ± 37 pg/10^5 cells ± SE
- VEGF secretion ([3]; TGF-alpha stimulated, 0.5 μM compound): 766 ± 75 pg/10^5 cells ± SE
- effect on the basal level of VEGF secretion from A431 cells ([3]; basal, in words): appeared to inhibit
- VEGF secretion ([3]; serum free media (basal), 0.1 μM compound): 280 ± 41 pg/10^5 cells ± SE
- VEGF secretion ([3]; serum free media (basal), 0.5 μM compound): 250 ± 46 pg/10^5 cells ± SE

Source: patent publication US6344455B1 (Warner-Lambert Company, priority 1998, dated 2002)
